Source: patent EP3623369A1, “NOVEL MORPHOLINYL AMINE COMPOUNDS FOR THE TREATMENT OF AUTOIMMUNE DISEASE” (F. Hoffmann-La Roche AG, priority 2018, dated 2020)

Target: T1, hTLR7 (Homo sapiens, UniProt Q9NYK1)
T1 sequence (Q9NYK1 27-1049): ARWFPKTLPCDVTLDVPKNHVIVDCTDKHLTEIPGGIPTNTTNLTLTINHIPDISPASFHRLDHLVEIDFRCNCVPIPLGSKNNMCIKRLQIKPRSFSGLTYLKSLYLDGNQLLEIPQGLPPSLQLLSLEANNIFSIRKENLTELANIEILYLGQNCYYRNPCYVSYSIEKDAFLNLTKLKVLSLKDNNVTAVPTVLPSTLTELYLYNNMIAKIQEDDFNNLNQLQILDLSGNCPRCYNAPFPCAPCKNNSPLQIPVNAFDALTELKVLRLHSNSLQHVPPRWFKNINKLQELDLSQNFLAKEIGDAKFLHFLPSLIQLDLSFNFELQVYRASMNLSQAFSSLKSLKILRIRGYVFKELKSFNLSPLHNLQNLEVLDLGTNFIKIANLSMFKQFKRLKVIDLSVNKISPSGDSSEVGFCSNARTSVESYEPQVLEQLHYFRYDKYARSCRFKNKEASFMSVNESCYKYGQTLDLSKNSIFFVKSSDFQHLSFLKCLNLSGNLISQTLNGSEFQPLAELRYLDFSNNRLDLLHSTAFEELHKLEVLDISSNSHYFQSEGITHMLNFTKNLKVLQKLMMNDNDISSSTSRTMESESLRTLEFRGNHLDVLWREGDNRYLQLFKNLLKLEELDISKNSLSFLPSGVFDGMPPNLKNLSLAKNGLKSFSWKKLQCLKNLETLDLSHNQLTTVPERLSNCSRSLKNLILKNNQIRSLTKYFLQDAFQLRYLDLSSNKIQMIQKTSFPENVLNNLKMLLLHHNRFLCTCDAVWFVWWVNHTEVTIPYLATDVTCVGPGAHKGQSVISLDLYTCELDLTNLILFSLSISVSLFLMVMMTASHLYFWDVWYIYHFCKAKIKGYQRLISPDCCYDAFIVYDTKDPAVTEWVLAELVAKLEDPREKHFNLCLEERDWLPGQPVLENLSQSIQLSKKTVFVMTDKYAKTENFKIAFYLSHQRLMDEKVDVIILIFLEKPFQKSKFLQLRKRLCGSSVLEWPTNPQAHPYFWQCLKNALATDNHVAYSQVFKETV
Experiment: HEK293-Blue-hTLR-7 cells assay (SEAP reporter, R848 stimulation)
Format: cell-based
Conditions: HEK293-Blue-hTLR7 cells, R848, 20 hrs; 0.003 is the lowest tested concentration; read-out: HEK/hTLR7 IC50
Procedure: The following tests were carried out in order to determine the activity of the compounds of formula (I) or (Ia) in HEK293-Blue-hTLR-7/8/9 cells assay.
HEK293-Blue-hTLR-7 cells assay:
A stable HEK293-Blue-hTLR-7 cell line was purchased from InvivoGen (Cat.#: hkb-htlr7, San Diego, California, USA). These cells were originally designed for studying the stimulation of human TLR7 by monitoring the activation of NF-κB. A SEAP (secreted embryonic alkaline phosphatase) reporter gene was placed under the control of the IFN-β minimal promoter fused to five NF-κB and AP-1-binding sites. The SEAP was induced by activating NF-κB and AP-1 via stimulating HEK-Blue hTLR7 cells with TLR7 ligands. Therefore the reporter expression was declined by TLR7 antagonist under the stimulation of a ligand, such as R848 (Resiquimod), for incubation of 20 hrs. The cell culture supernatant SEAP reporter activity was determined using QUANTI-Blue™ kit (Cat.#: rep-qb1, Invivogen, San Diego, Ca, USA) at a wavelength of 640 nm, a detection medium that turns purple or blue in the presence of alkaline phosphatase.
HEK293-Blue-hTLR7 cells were incubated at a density of 250,000∼450,000 cells/mL in a volume of 170 µL in a 96-well plate in Dulbecco's Modified Eagle's medium (DMEM) containing 4.5 g/L glucose, 50 U/mL penicillin, […], […], 2 mM L-glutamine, 10% (v/v) heat-inactivated fetal bovine serum with addition of 20 µL test compound in a serial dilution in the presence of final DMSO at 1% and 10 µL of 20uM R848 in above DMEM, perform incubation under 37 °C in a CO2 incubator for 20 hrs. Then 20 µL of the supernatant from each well was incubated with 180 µL Quanti-blue substrate solution at 37 °C for 2 hrs and the absorbance was read at 620∼655 nm using a spectrophotometer. The signalling pathway that TLR7 activation leads to downstream NF-κB activation has been widely accepted, and therefore similar reporter assay was modified for evaluating TLR7 antagonist.

Compound	IC50
C[C@@H]1CN(c2ccc(C#N)c3ncccc23)C[C@H](CN2Cc3cc(N4CCNCC4)cnc3C2)O1 [Example 20, 5-[(2R,6S)-2-methyl-6-[(3-piperazin-1-yl-5,7-dihydropyrrolo[3,4-b]pyridin-6-yl)methyl]morpholin-4-yl]quinoline-8-carbonitrile]	14 nM
C[C@@H]1CN(c2ccc(C#N)c3nccnc23)C[C@H](CN2Cc3ccc(N4CCN5CCCCC5C4)cc3C2)O1 (stereo partly drawn) [Example 40, 8-[(2S,6R)-2-[[5-(1,3,4,6,7,8,9,9a-octahydropyrido[1,2-a]pyrazin-2-yl)isoindolin-2-yl]methyl]-6-methyl-morpholin-4-yl]quinoxaline-5-carbonitrile]	33 nM
C[C@@H]1CN(c2ccc(C#N)c3ncccc23)C[C@H](CN2Cc3ccc(N4CCNCC4C(F)F)cc3C2)O1 (stereo partly drawn) [Example 76, 5-[(2S,6R)-2-[[5-[2-(difluoromethyl)piperazin-1-yl]isoindolin-2-yl]methyl]-6-methyl-morpholin-4-yl]quinoline-8-carbonitrile]	9 nM
C[C@@H]1CN(c2ccc(C#N)c3ncccc23)C[C@H](CNCc2ccc(N3CCNCC3)cc2)O1 [Example 86, 5-[(2R,6S)-2-methyl-6-[[(4-piperazin-1-ylphenyl)methylamino]methyl]morpholin-4-yl] quinoline-8-carbonitrile]	15 nM
5-[(2S,6R)-2-[[5-[3-(hydroxymethyl)piperazin-1-yl]isoindolin-2-yl]methyl]-6-methyl-morpholin-4-yl]quinoline-8-carbonitrile [Example 85]	20 nM
C[C@@H]1CN(c2ccc(C#N)c3nccnc23)C[C@H](CN2Cc3ccc(N4CCNC5(CC5)C4)cc3C2)O1 [Example 38, 8-[(2S,6R)-2-[[5-(4,7-diazaspiro[2.5]octan-7-yl)isoindolin-2-yl]methyl]-6-methyl-morpholin-4-yl]quinoxaline-5-carbonitrile]	23 nM
C[C@@H]1CN(c2ccc(Cl)c3ncccc23)C[C@H](CN2Cc3ccc(N4CCNCC4)cc3C2)O1 [Example 31, (2R,6S)-4-(8-chloro-5-quinolyl)-2-methyl-6-[(5-piperazin-1-ylisoindolin-2-yl)methyl]morpholine]	29 nM
C[C@@H]1CN(c2ccc(C#N)c3ncccc23)C[C@H](CN2CCc3nc(N4CCNCC4)ccc3C2)O1 [Example 79, 5-[(2R,6S)-2-methyl-6-[(2-piperazin-1-yl-7,8-dihydro-5H-1,6-naphthyridin-6-yl)methyl]morpholin-4-yl]quinoline-8-carbonitrile]	15 nM
CC1CNCCN1c1ccc2c(c1)CN(C[C@H]1CN(c3ccc(C#N)c4ncccc34)C[C@@H](C)O1)C2 (stereo partly drawn) [Example 78, 5-[(2R,6S)-2-methyl-6-[[5-(2-methylpiperazin-1-yl)isoindolin-2-yl]methyl]morpholin-4-yl] quinoline-8-carbonitrile]	11 nM
C[C@@H]1CN(c2ccc(C#N)c3ncccc23)C[C@H](CN2Cc3ccc(CN4CCCCC4)cc3C2)O1 [Example 74, 5-[(2R,6S)-2-methyl-6-[[5-(1-piperidylmethyl)isoindolin-2-yl]methyl]morpholin-4-yl]quinoline-8-carbonitrile]	59 nM
C[C@@H]1CN(c2ccc(C#N)c3ncccc23)C[C@H](CN2Cc3cc(N4CCN(C)CC4)cc(F)c3C2)O1 [Example 69, 5-[(2S,6R)-2-[[4-fluoro-6-(4-methylpiperazin-1-yl)isoindolin-2-yl]methyl]-6-methyl-morpholin-4-yl]quinoline-8-carbonitrile]	43 nM
C[C@@H]1CN(c2ccc3c(c2)CN(C[C@H]2CN(c4ccc(C#N)c5ncccc45)C[C@@H](C)O2)C3)C[C@@H](C)N1 (mixture of isomers) [Example 57, Trans-5-[(2R,6S)-2-methyl-6-[[5-[3,5-dimethylpiperazin-1-yl]isoindolin-2-yl]methyl]morpholin-4-yl]quinoline-8-carbonitrile]	125 nM
C[C@@H]1CN(c2ccc(C#N)n3nccc23)C[C@H](CN2Cc3cc(N4CCNCC4)cnc3C2)O1 [Example 18, 4-[(2R,6S)-2-methyl-6-[(3-piperazin-1-yl-5,7-dihydropyrrolo[3,4-b]pyridin-6-yl)methyl]morpholin-4-yl]pyrazolo[1,5-a]pyridine-7-carbonitrile]	68 nM
C[C@@H]1CN(c2ccc(C#N)n3nccc23)C[C@H](CN2Cc3ccc(C4CCNCC4)cc3C2)O1 [Example 8, 4-[(2R,6S)-2-methyl-6-[[5-(4-piperidyl)isoindolin-2-yl]methyl]morpholin-4-yl]pyrazolo[1,5-a]pyridine-7-carbonitrile]	206 nM
3-fluoro-4-[(2R,6S)-2-methyl-6-[(5-piperazin-1-ylisoindolin-2-yl)methyl]morpholin-4-yl]pyrazolo[1,5-a]pyridine-7-carbonitrile [Example 7]	42 nM
C[C@@H]1CN(c2ccc(C#N)c3ncccc23)C[C@H](CN2Cc3ccc(N4CCNCC4)nc3C2)O1 [Example 80, 5-[(2R,6S)-2-methyl-6-[(2-piperazin-1-yl-5,7-dihydropyrrolo[3,4-b]pyridin-6-yl)methyl]morpholin-4-yl]quinoline-8-carbonitrile]	7 nM
C[C@@H]1CN(c2ccc(C#N)c3ncccc23)C[C@H](CN2CCc3cc(N4CCNCC4)ncc3C2)O1 [Example 70, 5-[(2R,6S)-2-methyl-6-[(6-piperazin-1-yl-3,4-dihydro-1H-2,7-naphthyridin-2-yl)methyl]morpholin-4-yl]quinoline-8-carbonitrile]	14 nM
C[C@@H]1CN(c2ccc(C#N)c3ncccc23)C[C@H](CN2Cc3ccc(N4C5CNCC4COC5)cc3C2)O1 [Example 46, 5-[(2R,6S)-2-methyl-6-[[5-(3-oxa-7,9-diazabicyclo[3.3.1]nonan-9-yl)isoindolin-2-yl]methyl]morpholin-4-yl]quinoline-8-carbonitrile]	74 nM
C[C@@H]1CN(c2ccc(C#N)n3nccc23)C[C@H](CN2Cc3ccc(C4CCNC4)cc3C2)O1 (stereo partly drawn) [Example 9, 4-[(2R,6S)-2-methyl-6-[(5-pyrrolidin-3-ylisoindolin-2-yl)methyl]morpholin-4-yl]pyrazolo[1,5-a]pyridine-7-carbonitrile]	195 nM
C[C@@H]1CN(c2ccc(C#N)c3nccnc23)C[C@H](CN2Cc3ccc(N4CCNCC4)cc3C2)O1 [Example 12, 8-[(2R,6S)-2-methyl-6-[(5-piperazin-1-ylisoindolin-2-yl)methyl]morpholin-4-yl]quinoxaline-5-carbonitrile]	< 3 nM
C[C@@H]1CN(c2ccc(C#N)c3nccnc23)C[C@H](CN2Cc3ccc(N4CCN(C5CC5)CC4)cc3C2)O1 [Example 35, 8-[(2S,6R)-2-[[5-(4-cyclopropylpiperazin-1-yl)isoindolin-2-yl]methyl]-6-methyl-morpholin-4-yl]quinoxaline-5-carbonitrile]	41 nM
C[C@@H]1CN(c2ccc3c(c2)CN(C[C@H]2CN(c4ccc(C#N)c5ncccc45)C[C@@H](C)O2)C3)C[C@H](C)N1 [Example 71, 5-[(2R,6S)-2-methyl-6-[[5-[(3R,5S)-3,5-dimethylpiperazin-1-yl]isoindolin-2-yl]methyl]morpholin-4-yl]quinoline-8-carbonitrile]	108 nM
